{"source": "the supplement of paper PMC10307832", "experiment_in_all_cases": "relative viability (nuclei count vs DMSO), 5 days (fraction); higher = more cells survive", "key": {"NCI-H2347": {"system": "NCI-H2347", "procedure,_shortened": "(§1)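 Relative viability is defined as nuclei in treated wells over nuclei in vehicle wells. Duplicate plates were run and medians reported. Lung cancer cell lines in 1536-well plates were dosed by pin tool one day after seeding, with one drug or with a fixed anchor-drug dose plus five library-drug doses (not always all listed) in √10 steps, and nuclei were counted after 5 days.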"}, "NCI-H520": {"system": "NCI-H520", "procedure,_shortened": "as §1"}, "NCI-H441": {"system": "NCI-H441", "procedure,_shortened": "as §1"}, "NCI-H1563": {"system": "NCI-H1563", "procedure,_shortened": "as §1"}, "COR-L23": {"system": "COR-L23", "procedure,_shortened": "as §1"}, "NCI-H1793": {"system": "NCI-H1793", "procedure,_shortened": "as §1"}, "201T": {"system": "201T", "procedure,_shortened": "as §1"}, "HCC-15": {"system": "HCC-15", "procedure,_shortened": "as §1"}, "EPLC-272H": {"system": "EPLC-272H", "procedure,_shortened": "as §1"}, "NCI-H2023": {"system": "NCI-H2023", "procedure,_shortened": "as §1"}, "NCI-H647": {"system": "NCI-H647", "procedure,_shortened": "as §1"}, "UMC-11": {"system": "UMC-11", "procedure,_shortened": "as §1"}, "NCI-H2405": {"system": "NCI-H2405", "procedure,_shortened": "as §1"}, "H3255": {"system": "H3255", "procedure,_shortened": "as §1"}, "NCI-H3122": {"system": "NCI-H3122", "procedure,_shortened": "as §1"}, "NCI-H1734": {"system": "NCI-H1734", "procedure,_shortened": "as §1"}, "NCI-H322M": {"system": "NCI-H322M", "procedure,_shortened": "as §1"}, "PC-14": {"system": "PC-14", "procedure,_shortened": "as §1"}, "LOU-NH91": {"system": "LOU-NH91", "procedure,_shortened": "as §1"}}, "data": [{"smiles": "Nc1ccn([C@@H]2O[C@H](CO)[C@@H](O)[C@@H]2O)c(=O)n1", "note": "[Cytarabine] + C[C@]1(O)C[C@@H](c2nc(-c3ccc4ccc(-c5ccccc5)nc4c3)c3c(N)nccn32)C1 [Linsitinib] (partner 1 µM)", "values": [{"measurement": "relative viability", "setting": "NCI-H2347; first compound 0.005 µM", "result": 1.02}, {"measurement": "relative viability", "setting": "NCI-H2347; first compound 0.01581 µM", "result": 0.932}, {"measurement": "relative viability", "setting": "NCI-H2347; first compound 0.05 µM", "result": 0.822}, {"measurement": "relative viability", "setting": "NCI-H2347; first compound 0.1581 µM", "result": 0.32}, {"measurement": "relative viability", "setting": "NCI-H2347; first compound 0.5 µM", "result": 0.649}, {"measurement": "relative viability", "setting": "NCI-H520; first compound 0.005 µM", "result": 0.556}, {"measurement": "relative viability", "setting": "NCI-H520; first compound 0.01581 µM", "result": 1.09}, {"measurement": "relative viability", "setting": "NCI-H520; first compound 0.05 µM", "result": 0.952}, {"measurement": "relative viability", "setting": "NCI-H520; first compound 0.1581 µM", "result": 0.751}, {"measurement": "relative viability", "setting": "NCI-H520; first compound 0.5 µM", "result": 0.752}, {"measurement": "relative viability", "setting": "NCI-H441; first compound 0.005 µM", "result": 0.467}, {"measurement": "relative viability", "setting": "NCI-H441; first compound 0.01581 µM", "result": 0.476}, {"measurement": "relative viability", "setting": "NCI-H441; first compound 0.05 µM", "result": 0.406}, {"measurement": "relative viability", "setting": "NCI-H441; first compound 0.1581 µM", "result": 0.232}, {"measurement": "relative viability", "setting": "NCI-H441; first compound 0.5 µM", "result": 0.122}, {"measurement": "relative viability", "setting": "NCI-H1563; first compound 0.005 µM", "result": 1.14}, {"measurement": "relative viability", "setting": "NCI-H1563; first compound 0.01581 µM", "result": 1.3}, {"measurement": "relative viability", "setting": "NCI-H1563; first compound 0.05 µM", "result": 1.04}, {"measurement": "relative viability", "setting": "NCI-H1563; first compound 0.1581 µM", "result": 1}, {"measurement": "relative viability", "setting": "NCI-H1563; first compound 0.5 µM", "result": 0.769}, {"measurement": "relative viability", "setting": "COR-L23; first compound 0.005 µM", "result": 0.787}, {"measurement": "relative viability", "setting": "COR-L23; first compound 0.01581 µM", "result": 0.806}, {"measurement": "relative viability", "setting": "COR-L23; first compound 0.05 µM", "result": 0.552}, {"measurement": "relative viability", "setting": "COR-L23; first compound 0.1581 µM", "result": 0.159}, {"measurement": "relative viability", "setting": "COR-L23; first compound 0.5 µM", "result": 0.122}, {"measurement": "relative viability", "setting": "NCI-H1793; first compound 0.005 µM", "result": 0.941}, {"measurement": "relative viability", "setting": "NCI-H1793; first compound 0.01581 µM", "result": 0.899}, {"measurement": "relative viability", "setting": "NCI-H1793; first compound 0.05 µM", "result": 0.89}, {"measurement": "relative viability", "setting": "NCI-H1793; first compound 0.1581 µM", "result": 0.732}, {"measurement": "relative viability", "setting": "NCI-H1793; first compound 0.5 µM", "result": 0.391}, {"measurement": "relative viability", "setting": "201T; first compound 0.005 µM", "result": 1.1}, {"measurement": "relative viability", "setting": "201T; first compound 0.01581 µM", "result": 1.02}, {"measurement": "relative viability", "setting": "201T; first compound 0.05 µM", "result": 1.03}, {"measurement": "relative viability", "setting": "201T; first compound 0.1581 µM", "result": 0.9}, {"measurement": "relative viability", "setting": "201T; first compound 0.5 µM", "result": 0.886}, {"measurement": "relative viability", "setting": "HCC-15; first compound 0.005 µM", "result": 0.902}, {"measurement": "relative viability", "setting": "HCC-15; first compound 0.01581 µM", "result": 0.912}, {"measurement": "relative viability", "setting": "HCC-15; first compound 0.05 µM", "result": 0.903}, {"measurement": "relative viability", "setting": "HCC-15; first compound 0.1581 µM", "result": 0.72}, {"measurement": "relative viability", "setting": "HCC-15; first compound 0.5 µM", "result": 0.585}, {"measurement": "relative viability", "setting": "EPLC-272H; first compound 0.005 µM", "result": 0.883}, {"measurement": "relative viability", "setting": "EPLC-272H; first compound 0.01581 µM", "result": 0.834}, {"measurement": "relative viability", "setting": "EPLC-272H; first compound 0.05 µM", "result": 0.945}, {"measurement": "relative viability", "setting": "EPLC-272H; first compound 0.1581 µM", "result": 0.522}, {"measurement": "relative viability", "setting": "EPLC-272H; first compound 0.5 µM", "result": 0.532}, {"measurement": "relative viability", "setting": "NCI-H2023; first compound 0.005 µM", "result": 0.492}, {"measurement": "relative viability", "setting": "NCI-H2023; first compound 0.01581 µM", "result": 0.302}, {"measurement": "relative viability", "setting": "NCI-H2023; first compound 0.05 µM", "result": 0.149}, {"measurement": "relative viability", "setting": "NCI-H2023; first compound 0.1581 µM", "result": 0.0967}, {"measurement": "relative viability", "setting": "NCI-H2023; first compound 0.5 µM", "result": 0.0876}, {"measurement": "relative viability", "setting": "NCI-H647; first compound 0.005 µM", "result": 0.729}, {"measurement": "relative viability", "setting": "NCI-H647; first compound 0.01581 µM", "result": 0.55}, {"measurement": "relative viability", "setting": "NCI-H647; first compound 0.05 µM", "result": 0.394}, {"measurement": "relative viability", "setting": "NCI-H647; first compound 0.1581 µM", "result": 0.148}, {"measurement": "relative viability", "setting": "NCI-H647; first compound 0.5 µM", "result": 0.061}, {"measurement": "relative viability", "setting": "UMC-11; first compound 0.005 µM", "result": 0.637}, {"measurement": "relative viability", "setting": "UMC-11; first compound 0.01581 µM", "result": 0.637}, {"measurement": "relative viability", "setting": "UMC-11; first compound 0.05 µM", "result": 0.424}, {"measurement": "relative viability", "setting": "UMC-11; first compound 0.1581 µM", "result": 0.246}, {"measurement": "relative viability", "setting": "UMC-11; first compound 0.5 µM", "result": 0.226}, {"measurement": "relative viability", "setting": "NCI-H2405; first compound 0.005 µM", "result": 0.933}, {"measurement": "relative viability", "setting": "NCI-H2405; first compound 0.01581 µM", "result": 0.714}, {"measurement": "relative viability", "setting": "NCI-H2405; first compound 0.05 µM", "result": 0.661}, {"measurement": "relative viability", "setting": "NCI-H2405; first compound 0.1581 µM", "result": 0.498}, {"measurement": "relative viability", "setting": "NCI-H2405; first compound 0.5 µM", "result": 0.383}, {"measurement": "relative viability", "setting": "H3255; first compound 0.005 µM", "result": 0.945}, {"measurement": "relative viability", "setting": "H3255; first compound 0.01581 µM", "result": 0.885}, {"measurement": "relative viability", "setting": "H3255; first compound 0.05 µM", "result": 0.808}, {"measurement": "relative viability", "setting": "H3255; first compound 0.1581 µM", "result": 0.784}, {"measurement": "relative viability", "setting": "H3255; first compound 0.5 µM", "result": 0.674}, {"measurement": "relative viability", "setting": "NCI-H3122; first compound 0.005 µM", "result": 0.995}, {"measurement": "relative viability", "setting": "NCI-H3122; first compound 0.01581 µM", "result": 0.893}, {"measurement": "relative viability", "setting": "NCI-H3122; first compound 0.05 µM", "result": 0.948}, {"measurement": "relative viability", "setting": "NCI-H3122; first compound 0.1581 µM", "result": 0.72}, {"measurement": "relative viability", "setting": "NCI-H3122; first compound 0.5 µM", "result": 0.476}, {"measurement": "relative viability", "setting": "NCI-H1734; first compound 0.005 µM", "result": 0.512}, {"measurement": "relative viability", "setting": "NCI-H1734; first compound 0.01581 µM", "result": 0.328}, {"measurement": "relative viability", "setting": "NCI-H1734; first compound 0.05 µM", "result": 0.257}, {"measurement": "relative viability", "setting": "NCI-H1734; first compound 0.1581 µM", "result": 0.141}, {"measurement": "relative viability", "setting": "NCI-H1734; first compound 0.5 µM", "result": 0.128}, {"measurement": "relative viability", "setting": "NCI-H322M; first compound 0.005 µM", "result": 0.822}, {"measurement": "relative viability", "setting": "NCI-H322M; first compound 0.01581 µM", "result": 0.707}, {"measurement": "relative viability", "setting": "NCI-H322M; first compound 0.05 µM", "result": 0.628}, {"measurement": "relative viability", "setting": "NCI-H322M; first compound 0.1581 µM", "result": 0.464}, {"measurement": "relative viability", "setting": "NCI-H322M; first compound 0.5 µM", "result": 0.43}, {"measurement": "relative viability", "setting": "PC-14; first compound 0.005 µM", "result": 0.967}, {"measurement": "relative viability", "setting": "PC-14; first compound 0.01581 µM", "result": 0.862}, {"measurement": "relative viability", "setting": "PC-14; first compound 0.05 µM", "result": 0.761}, {"measurement": "relative viability", "setting": "PC-14; first compound 0.1581 µM", "result": 0.436}, {"measurement": "relative viability", "setting": "PC-14; first compound 0.5 µM", "result": 0.464}, {"measurement": "relative viability", "setting": "LOU-NH91; first compound 0.005 µM", "result": 0.996}, {"measurement": "relative viability", "setting": "LOU-NH91; first compound 0.01581 µM", "result": 0.904}, {"measurement": "relative viability", "setting": "LOU-NH91; first compound 0.05 µM", "result": 0.82}, {"measurement": "relative viability", "setting": "LOU-NH91; first compound 0.1581 µM", "result": 0.54}, {"measurement": "relative viability", "setting": "LOU-NH91; first compound 0.5 µM", "result": 0.566}]}]}
